Assay results: patent US5998596A, “Inhibition of protein kinase activity by aptameric action of oligonucleotides” (The United States of America as represented by the …)
Entries after “also recorded” stand apart in the source; their conditions may differ.

System: cellular phosphotyrosine content of K562 cells
Experiment: Western analysis of total cellular phosphotyrosine content after electroporation of K562 cells
Type: cell-based, human
Conditions: K562 cells electroporated with 100 μM ODN, one hour later
Protocol: One hundred micrograms of protein from cell lysates were separated on a 7% SDS polyacrylamide gel. Transfer was performed overnight at 50 volts, 4° C., in a 0.2 M glycine, 25 mM Tris, pH 8.3, 0.15% SDS, 20% methanol buffer, onto […] nitrocellulose (Schleicher and Schuell Inc.). For cellular phosphotyrosine blots, Western probing was performed as described previously, with modifications (SARTOR, et al, 1991). Briefly, membranes were blocked for 2 hours with 5% albumin in TTBS (20 mM Tris HCL, pH 7.6; 0.05% Tween 20; 0.9% sodium chloride), probed for 1 hour with antiphosphotyrosine antibody (Upstate Biotechnology Inc., Lake Placid, N.Y.) diluted 1:500 in TTBS, followed by rabbit anti-mouse antibody (Cappel Research Products) and then [^125 I] protein A Sepharose (Amersham Corp., Arlington Heights, Ill.). Membranes were exposed to Kodak X-OMAT AR film overnight at -70° C. with intensifying screens.
Electroporation was performed as described (40). Briefly, 1-5×10^6 cells in 1 ml of RPMI 1640 with 10% fetal calf serum were placed into 0.4 cm gap electroporation chambers and electroporated with a Cell-Porator Electroporation System 1 (all from GIBCO BRL, Grand Island, N.Y.) at 800 microfarrads, 300 volts, at room temperature. Cells were then incubated at 37° C. for 1 hour before manipulation.
In K562 cells p210^bcr-abl is a major kinase responsible for protein tyrosine phosphorylation (38, 39). Changes in enzyme activity are therefore reflected by changes in cellular phosphotyrosine content.

With “5'-GTCCACCATGGCGCGGCCGGC-3' [ODN1] (phosphorothioate caps, further chemistry not given here) [21mer ODN complementary to nucleotides -12 to +9 of the p210bcr-abl mRNA, phosphorothioate capped unless otherwise specified]” the “total cellular protein phosphotyrosine content” value (listed as BCR-AS) was “dropped significantly; also recorded: reduced protein phosphotyrosine content” and the “total cellular protein phosphotyrosine content” value (listed as BCR-AS phosphorothioate capped) was “equally effective”.
